Test results published in patent US20140039044A1, “Hydroxylated Polymethoxyflavone Compositions” (WLLGEN, INC., priority 2006, published 2014).

Experiments:
Assay type in all cases: cell-based, human
[1] = system: HL-60 cells; assay: Cell cycle distribution by flow cytometry; conditions: 24 h, Table 10
Summary of the method: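 HL-60 cells were treated for 24 h with compound at 5, 10, 25, 50 or 100 μM, or with DMSO. Cells were then ethanol-fixed, treated with Triton X-100/RNase and stained with propidium iodide. DNA content was measured by flow cytometry to give cell-cycle phase distribution.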

[2] = system: AGS cells; assay: Cell cycle distribution by flow cytometry; conditions: 24 h, Table 11
Summary of the method: (§1)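 Human cancer cells (2×10^5 per dish) exposed 24 h to compound at 5–100 μM, or DMSO. Cells ethanol-fixed at −20° C overnight, RNase/Triton-treated at 37° C for 30 min, then stained with propidium iodide. DNA content read by FACScan flow cytometry to give phase distribution.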

[3] = system: COLO205 cells; assay: Cell cycle distribution by flow cytometry; conditions: COLO205 cells, 24 h, Table 12
Summary of the method: as §1

[4] = system: HT-29 cells; assay: Cell cycle distribution by flow cytometry; conditions: for Cell Cycle Distribution G0/G1 / Cell Cycle Distribution G2/M / Cell Cycle Distribution S: 24 h
Summary of the method: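 Cells were treated 24 h with compound at 5, 10, 25, 50 or 100 μM, or with DMSO. They were then ethanol-fixed, RNase-treated and stained with propidium iodide. DNA content was measured by FACScan flow cytometry to give cell-cycle phase distribution.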

[5] = system: AGS cells; assay: Apoptotic ratio by propidium iodide flow cytometry (AC50); conditions: Homo sapiens; AGS cells; read-out: Apoptosis-inducing AC50
Summary of the method: (§2)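 AC50 denotes the concentration that induces 50% apoptosis. It was derived from propidium iodide–DNA fluorescence measured by flow cytometry after ethanol fixation and RNase treatment. Cells were seeded at 2×10^5, grown 24 h, then exposed to test compounds for 24 h.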

[6] = system: COLO205 cells; assay: as above; conditions: Homo sapiens, COLO 205; COLO205 cells; read-out: Apoptosis-inducing AC50
Summary of the method: as §2

[7] = system: HL-60 cells; assay: as above; conditions: Homo sapiens; HL-60 cells; read-out: Apoptosis-inducing AC50
Summary of the method: as §2

SMILES: COc1cc(-c2cc(=O)c3c(OC)c(OC)c(OC)c(OC)c3o2)ccc1O [Compound G, 4′-hydroxy-5,6,7,8,3′-pentamethoxyflavone]
- Cell Cycle Distribution G0/G1 ([1]; 5 μM): 41.79 ± 0.80
- Cell Cycle Distribution G2/M ([1]; 5 μM): 4.80 ± 6.73
- Cell Cycle Distribution S ([1]; 5 μM): 53.41 ± 5.93
- Cell Cycle Distribution G0/G1 ([1]; 10 μM): 43.26 ± 2.02
- Cell Cycle Distribution G2/M ([1]; 10 μM): 12.61 ± 0.11
- Cell Cycle Distribution S ([1]; 10 μM): 44.15 ± 2.12
- Cell Cycle Distribution G0/G1 ([1]; 25 μM): 55.71 ± 0.15
- Cell Cycle Distribution G2/M ([1]; 25 μM): 8.39 ± 0.16
- Cell Cycle Distribution S ([1]; 25 μM): 35.90 ± 0.01
- Cell Cycle Distribution G0/G1 ([1]; 50 μM): 52.35 ± 1.09
- Cell Cycle Distribution G2/M ([1]; 50 μM): 12.18 ± 3.83
- Cell Cycle Distribution S ([1]; 50 μM): 35.48 ± 4.91
- Cell Cycle Distribution G0/G1 ([1]; 100 μM): 65.44 ± 5.42
- Cell Cycle Distribution G2/M ([1]; 100 μM): 11.21 ± 8.27
- Cell Cycle Distribution S ([1]; 100 μM): 23.35 ± 13.67
- Cell Cycle Distribution G0/G1 ([2]; 5 μM): 55.39 ± 0.47
- Cell Cycle Distribution G2/M ([2]; 5 μM): 16.76 ± 0.86
- Cell Cycle Distribution S ([2]; 5 μM): 27.86 ± 1.32
- Cell Cycle Distribution G0/G1 ([2]; 10 μM): 60.42 ± 1.28
- Cell Cycle Distribution G2/M ([2]; 10 μM): 16.80 ± 1.75
- Cell Cycle Distribution S ([2]; 10 μM): 22.79 ± 0.47
- Cell Cycle Distribution G0/G1 ([2]; 25 μM): 68.29 ± 0.95
- Cell Cycle Distribution G2/M ([2]; 25 μM): 14.39 ± 0.16
- Cell Cycle Distribution S ([2]; 25 μM): 17.33 ± 0.80
- Cell Cycle Distribution G0/G1 ([2]; 50 μM): 62.27 ± 0.06
- Cell Cycle Distribution G2/M ([2]; 50 μM): 22.98 ± 1.90
- Cell Cycle Distribution S ([2]; 50 μM): 14.78 ± 1.83
- Cell Cycle Distribution G0/G1 ([2]; 100 μM): 50.27 ± 0.52
- Cell Cycle Distribution G2/M ([2]; 100 μM): 26.85 ± 1.85
- Cell Cycle Distribution S ([2]; 100 μM): 22.88 ± 2.38
- Cell Cycle Distribution G0/G1 ([3]; 5 μM): 67.93 ± 0.74
- Cell Cycle Distribution G2/M ([3]; 5 μM): 4.71 ± 0.18
- Cell Cycle Distribution S ([3]; 5 μM): 27.36 ± 0.56
- Cell Cycle Distribution G0/G1 ([3]; 10 μM): 72.87 ± 2.37
- Cell Cycle Distribution G2/M ([3]; 10 μM): 4.51 ± 0.08
- Cell Cycle Distribution S ([3]; 10 μM): 22.64 ± 2.28
- Cell Cycle Distribution G0/G1 ([3]; 25 μM): 73.74 ± 0.51
- Cell Cycle Distribution G2/M ([3]; 25 μM): 6.47 ± 0.93
- Cell Cycle Distribution S ([3]; 25 μM): 19.80 ± 0.42
- Cell Cycle Distribution G0/G1 ([3]; 50 μM): 73.90 ± 0.41
- Cell Cycle Distribution G2/M ([3]; 50 μM): 8.17 ± 0.23
- Cell Cycle Distribution S ([3]; 50 μM): 17.94 ± 0.17
- Cell Cycle Distribution G0/G1 ([3]; 100 μM): 73.05 ± 0.30
- Cell Cycle Distribution G2/M ([3]; 100 μM): 7.61 ± 0.46
- Cell Cycle Distribution S ([3]; 100 μM): 19.35 ± 0.76
- Cell Cycle Distribution G0/G1 ([4]; 5 μM): 56.92 ± 1.98
- Cell Cycle Distribution G2/M ([4]; 5 μM): 12.42 ± 0.44
- Cell Cycle Distribution S ([4]; 5 μM): 30.66 ± 2.43
- Cell Cycle Distribution G0/G1 ([4]; 10 μM): 58.01 ± 1.22
- Cell Cycle Distribution G2/M ([4]; 10 μM): 9.97 ± 2.10
- Cell Cycle Distribution S ([4]; 10 μM): 32.03 ± 0.88
- Cell Cycle Distribution G0/G1 ([4]; 25 μM): 74.38 ± 1.68
- Cell Cycle Distribution G2/M ([4]; 25 μM): 6.18 ± 0.06
- Cell Cycle Distribution S ([4]; 25 μM): 19.55 ± 1.59
- Cell Cycle Distribution G0/G1 ([4]; 50 μM): 84.63 ± 1.16
- Cell Cycle Distribution G2/M ([4]; 50 μM): 7.99 ± 0.01
- Cell Cycle Distribution S ([4]; 50 μM): 7.39 ± 1.16
- Cell Cycle Distribution G0/G1 ([4]; 100 μM): 75.28 ± 1.61
- Cell Cycle Distribution G2/M ([4]; 100 μM): 14.63 ± 0.21
- Cell Cycle Distribution S ([4]; 100 μM): 10.11 ± 1.82
- Cell cycle arrest, in words ([4]; 5-100 μM, 24 h exposure): significant accumulation of cells in G1 phase
- AC50 [5]: > 100 µM
- AC50 [6]: > 100 µM
- AC50 [7]: 87.1 ± 7.83 µM
